Assay results as given in ChEMBL document CHEMBL1201862, “PubChem BioAssay data set” (2004).
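Grown in 96-well plates, cells were treated for 48 hours with each compound at five concentrations. Insufficient inhibition: endpoint recorded as highest concentration tested. GI50 marks 50% less growth.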 Calls of active or inactive are those of the source. Cut-off read from the data, not from the text of the source: active = GI50 up to about 1.1 µM and inactive = higher.

What was measured:
Assay in all cases: NCI anticancer screen, dose series, 48 h
RPMI-8226 = test system: RPMI-8226
EKVX = test system: EKVX
SK-MEL-5 = test system: SK-MEL-5
HCT-15 = test system: HCT-15
NCI-H226 = test system: NCI-H226
IGROV-1 = test system: IGROV-1
ACHN = test system: ACHN
UACC-257 = test system: UACC-257
UACC-62 = test system: UACC-62
NCI/ADR-RES = test system: NCI/ADR-RES
OVCAR-8 = test system: OVCAR-8
LOX IMVI = test system: LOX IMVI
HOP-62 = test system: HOP-62
OVCAR-5 = test system: OVCAR-5
MOLT-4 = test system: MOLT-4
HOP-92 = test system: HOP-92
T47D = test system: T47D
A498 = test system: A498
786-0 = test system: 786-0
RXF 393 = test system: RXF 393
BT-549 = test system: BT-549
MDA-MB-231 = test system: MDA-MB-231
CCRF-CEM = test system: CCRF-CEM
A549 = test system: A549
UO-31 = test system: UO-31
SK-MEL-28 = test system: SK-MEL-28
PC-3 = test system: PC-3
SK-MEL-2 = test system: SK-MEL-2
SN12C = test system: SN12C
TK-10 = test system: TK-10
SF-539 = test system: SF-539
NCI-H460 = test system: NCI-H460
DU-145 = test system: DU-145
SNB-75 = test system: SNB-75
K562 = test system: K562
SF-268 = test system: SF-268
CAKI-1 = test system: CAKI-1
SF-295 = test system: SF-295
NCI-H23 = test system: NCI-H23
HCT-116 = test system: HCT-116
U-251 = test system: U-251
SK-OV-3 = test system: SK-OV-3
OVCAR-4 = test system: OVCAR-4
HL-60 = test system: HL-60
COLO 205 = test system: COLO 205
HCC 2998 = test system: HCC 2998
OVCAR-3 = test system: OVCAR-3
SW-620 = test system: SW-620
MDA-MB-435 = test system: MDA-MB-435
HT-29 = test system: HT-29
MCF7 = test system: MCF7
M14 = test system: M14
SNB-19 = test system: SNB-19
Malme-3M = test system: Malme-3M
Hs-578T = test system: Hs-578T
KM12 = test system: KM12
SR = test system: SR
NCI-H522 = test system: NCI-H522
MDA-N = test system: MDA-N

Measured: GI50

CCOC(=O)c1c(SC)nc(-c2ccc(Cl)cc2)sc1=N.[O-][Cl+3]([O-])([O-])O
inactive: RPMI-8226 37.2 µM | EKVX 22 µM | SK-MEL-5 15.2 µM | NCI-H226 25.9 µM | IGROV-1 20.8 µM | ACHN 40.1 µM | UACC-257 34.6 µM | UACC-62 30.8 µM | NCI/ADR-RES 23.7 µM | OVCAR-8 23.5 µM | LOX IMVI 36.4 µM | HOP-62 30.1 µM | OVCAR-5 59.2 µM | MOLT-4 26.4 µM | HOP-92 80.2 µM | T47D 31.9 µM | A498 31.5 µM | 786-0 27.3 µM | RXF 393 33.9 µM | BT-549 30 µM | MDA-MB-231 41.7 µM | CCRF-CEM 39.9 µM | A549 37.7 µM | UO-31 33.8 µM | SK-MEL-28 61.9 µM | PC-3 26.1 µM | SK-MEL-2 20.2 µM | SN12C 44.4 µM | TK-10 44.3 µM | SF-539 32.1 µM | NCI-H460 26 µM | DU-145 40.9 µM | SNB-75 25.1 µM | K562 34.4 µM | SF-268 29.4 µM | CAKI-1 35.5 µM | SF-295 28.2 µM | NCI-H23 22.6 µM | HCT-116 23.1 µM | U-251 37.6 µM | SK-OV-3 37.2 µM | OVCAR-4 30.8 µM | HL-60 35 µM | COLO 205 21.8 µM | HCC 2998 22.7 µM | OVCAR-3 33.2 µM | SW-620 48 µM | MDA-MB-435 34 µM | HT-29 25.8 µM | MCF7 29 µM | M14 45.4 µM | SNB-19 94.4 µM | Malme-3M 20.5 µM | Hs-578T 27.9 µM | KM12 30.8 µM
22.9 µM: HCT-15

O=C(CNC(=O)OCc1ccccc1)NCCCCC(NC(=O)OCc1ccccc1)C(=O)NC(CCCCNC(=O)CNC(=O)OCc1ccccc1)C(=O)OCc1ccccc1 (stereo unspecified)
inactive: RPMI-8226 > 62.5 µM | SK-MEL-5 > 62.5 µM | NCI-H226 > 62.5 µM | IGROV-1 > 62.5 µM | ACHN > 62.5 µM | UACC-257 > 62.5 µM | UACC-62 > 62.5 µM | OVCAR-8 > 62.5 µM | LOX IMVI > 62.5 µM | HOP-62 > 62.5 µM | OVCAR-5 > 62.5 µM | MOLT-4 > 62.5 µM | T47D > 62.5 µM | A498 > 62.5 µM | 786-0 > 62.5 µM | BT-549 > 62.5 µM | MDA-MB-231 > 62.5 µM | CCRF-CEM > 62.5 µM | A549 > 62.5 µM | SR > 62.5 µM | UO-31 > 62.5 µM | SK-MEL-28 > 62.5 µM | PC-3 > 62.5 µM | SK-MEL-2 > 62.5 µM | SN12C > 62.5 µM | TK-10 > 62.5 µM | NCI-H460 > 62.5 µM | DU-145 > 62.5 µM | SNB-75 > 62.5 µM | K562 > 62.5 µM | SF-268 > 62.5 µM | CAKI-1 > 62.5 µM | NCI-H23 > 62.5 µM | NCI-H522 26.9 µM | HCT-116 > 62.5 µM | U-251 > 62.5 µM | OVCAR-4 > 62.5 µM | HL-60 > 62.5 µM | HCC 2998 > 62.5 µM | OVCAR-3 > 62.5 µM | SW-620 > 62.5 µM | MDA-MB-435 > 62.5 µM | HT-29 > 62.5 µM | MCF7 > 62.5 µM | M14 > 62.5 µM | SNB-19 > 62.5 µM | Malme-3M > 62.5 µM
> 62.5 µM: HCT-15

N=c1oc2cc(O)ccc2cc1C(=O)Nc1cccc2ccccc12
2.67 µM: HCT-15
active: Malme-3M 0.883 µM
inactive: RPMI-8226 4.45 µM | EKVX 4.32 µM | SK-MEL-5 4.23 µM | NCI-H226 5.92 µM | IGROV-1 3.27 µM | ACHN 3.99 µM | UACC-257 9.08 µM | UACC-62 3.23 µM | NCI/ADR-RES 1.82 µM | OVCAR-8 4.78 µM | LOX IMVI 4.86 µM | HOP-62 11.3 µM | OVCAR-5 13.5 µM | MOLT-4 2.7 µM | HOP-92 4.31 µM | T47D 3.5 µM | A498 5.25 µM | 786-0 3.45 µM | RXF 393 4.91 µM | BT-549 2.43 µM | MDA-MB-231 3.06 µM | CCRF-CEM 2.35 µM | A549 5.37 µM | SR 1.67 µM | UO-31 4.7 µM | SK-MEL-28 6.34 µM | PC-3 3.05 µM | SN12C 5.33 µM | TK-10 2.69 µM | NCI-H460 4.02 µM | DU-145 6.53 µM | SNB-75 3.54 µM | K562 3.33 µM | SF-268 3.61 µM | CAKI-1 5.97 µM | SF-295 5.18 µM | NCI-H23 3.7 µM | NCI-H522 1.65 µM | HCT-116 3.39 µM | U-251 3.53 µM | SK-OV-3 6.65 µM | OVCAR-4 7.01 µM | HL-60 2.11 µM | COLO 205 15.2 µM | HCC 2998 3.71 µM | OVCAR-3 7.13 µM | SW-620 3.4 µM | MDA-MB-435 1.97 µM | HT-29 7.6 µM | MCF7 3.93 µM | M14 7 µM | SNB-19 4.68 µM | Hs-578T 2.94 µM | KM12 3.75 µM

Cn1c(=N)n[n+]([O-])c2ccccc21
inactive: EKVX 9.93 µM | SK-MEL-5 1.59 µM | NCI-H226 13.4 µM | IGROV-1 3.46 µM | MDA-N 1.66 µM | ACHN 5.48 µM | UACC-257 1.94 µM | UACC-62 1.75 µM | OVCAR-8 13.2 µM | LOX IMVI 2.59 µM | HOP-62 2.52 µM | OVCAR-5 2.51 µM | MOLT-4 1.87 µM | HOP-92 23.7 µM | 786-0 8.2 µM | RXF 393 19.6 µM | BT-549 2.01 µM | MDA-MB-231 11.7 µM | CCRF-CEM 4.24 µM | A549 11.7 µM | UO-31 5.16 µM | PC-3 6.28 µM | SK-MEL-2 3.47 µM | SN12C 2.13 µM | TK-10 27.2 µM | SF-539 1.5 µM | DU-145 2.28 µM | SNB-75 3.78 µM | K562 1.36 µM | CAKI-1 2.31 µM | SF-295 3.54 µM | NCI-H23 2.16 µM | NCI-H522 2.86 µM | HCT-116 4.14 µM | U-251 7.69 µM | SK-OV-3 22.9 µM | OVCAR-4 1.94 µM | HL-60 2.17 µM | COLO 205 2.33 µM | HCC 2998 20.6 µM | OVCAR-3 1.55 µM | SW-620 2.74 µM | HT-29 3.1 µM | MCF7 1.8 µM | M14 1.95 µM | Malme-3M 2.34 µM | KM12 19 µM
active: MDA-MB-435 0.877 µM

C[C@H]1[C@H](N2CCCC2)O[Si](C(C)(C)C)(C(C)(C)C)[C@@H]1C
> 100 µM: HCT-15
active: HOP-92 < 0.01 µM | SNB-19 0.964 µM
inactive: RPMI-8226 > 100 µM | EKVX > 100 µM | SK-MEL-5 > 100 µM | NCI-H226 > 100 µM | IGROV-1 > 100 µM | MDA-N > 100 µM | ACHN 46.8 µM | UACC-257 > 100 µM | UACC-62 > 100 µM | NCI/ADR-RES > 100 µM | OVCAR-8 > 100 µM | LOX IMVI > 100 µM | HOP-62 > 100 µM | OVCAR-5 > 100 µM | MOLT-4 > 100 µM | T47D > 100 µM | A498 > 100 µM | 786-0 > 100 µM | BT-549 > 100 µM | MDA-MB-231 > 100 µM | CCRF-CEM 36.2 µM | A549 > 100 µM | UO-31 > 100 µM | SK-MEL-28 > 100 µM | PC-3 99.5 µM | SK-MEL-2 > 100 µM | SN12C > 100 µM | TK-10 > 100 µM | SF-539 > 100 µM | SNB-75 74.6 µM | K562 97.3 µM | CAKI-1 > 100 µM | SF-295 > 100 µM | NCI-H23 > 100 µM | NCI-H522 > 100 µM | HCT-116 > 100 µM | U-251 > 100 µM | SK-OV-3 > 100 µM | OVCAR-4 > 100 µM | HL-60 13.7 µM | COLO 205 > 100 µM | HCC 2998 > 100 µM | OVCAR-3 > 100 µM | SW-620 > 100 µM | MDA-MB-435 > 100 µM | HT-29 > 100 µM | MCF7 > 100 µM | M14 > 100 µM | Malme-3M 59.2 µM | KM12 > 100 µM
